Literature values as cited in patent US20120046286A1, “Novel Compounds” (priority 2009, published 2012).

Experiments:
neutrophils [1] = tested on: neutrophils
neutrophils [2] = conditions: treatment of neutrophils; Thelen et al. 1994

Compound	effect on neutrophil migration and superoxide release (neutrophils [1])	effect on fMLP-induced respiratory burst response (neutrophils [2])
O=c1cc(N2CCOCC2)oc2c(-c3ccccc3)cccc12 [LY294002]	block neutrophil migration and superoxide release	
COC[C@H]1OC(=O)c2coc3c2[C@@]1(C)C1=C(C3=O)[C@@H]2CCC(=O)[C@@]2(C)C[C@H]1OC(C)=O [wortmannin]	block neutrophil migration and superoxide release	prevents the fMLP-induced respiratory burst response
